Assay results published in ChEMBL document CHEMBL6109160, “Novel Cyclic Peptides as Interleukin-23 Inhibitor for Treating Inflammatory Disorders” (ACS Med Chem Lett, 2025).

Biological target: T1, Interleukin-23 receptor (Homo sapiens, UniProt Q5VWK5)
T1 sequence (Q5VWK5 whole entry): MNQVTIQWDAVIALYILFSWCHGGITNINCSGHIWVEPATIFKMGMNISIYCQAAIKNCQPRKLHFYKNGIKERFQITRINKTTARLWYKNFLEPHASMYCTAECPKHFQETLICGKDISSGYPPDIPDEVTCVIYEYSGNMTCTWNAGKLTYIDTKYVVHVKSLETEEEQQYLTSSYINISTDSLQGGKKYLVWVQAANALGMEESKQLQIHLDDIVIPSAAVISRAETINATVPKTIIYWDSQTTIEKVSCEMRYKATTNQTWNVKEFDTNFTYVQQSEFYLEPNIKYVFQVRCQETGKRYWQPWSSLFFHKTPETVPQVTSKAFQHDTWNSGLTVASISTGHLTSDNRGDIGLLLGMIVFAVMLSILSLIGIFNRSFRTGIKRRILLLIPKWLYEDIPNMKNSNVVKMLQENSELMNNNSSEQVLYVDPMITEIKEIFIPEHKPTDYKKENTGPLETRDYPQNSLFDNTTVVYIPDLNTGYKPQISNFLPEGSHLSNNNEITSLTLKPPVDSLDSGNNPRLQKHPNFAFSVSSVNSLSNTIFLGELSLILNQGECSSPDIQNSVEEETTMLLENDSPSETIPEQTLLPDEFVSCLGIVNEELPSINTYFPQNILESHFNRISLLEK
Assay: Binding affinity to Interleukin-23 receptor in HEK293 cells transfected with firefly luciferase reporter incubated for 5 hrs by luminescence based analysis
Format: cell-based

IC50: 12 nM
SMILES: CC(=O)NCCCC[C@@H]1NC(=O)[C@H](Cc2c[nH]c3c(C)cccc23)NC(=O)[C@H]([C@@H](C)O)NC(=O)[C@H](CC(N)=O)NC(=O)[C@@H](NC(=O)CCOCCOCC[N+](C)(C)C)C(C)(C)SSC(C)(C)[C@@H](C(=O)N[C@@H](Cc2ccc(OCCN)cc2)C(=O)N[C@@H](Cc2ccc3ccccc3c2)C(=O)NC2(C(=O)N[C@@H](CCC(=O)O)C(=O)N[C@@H](CC(N)=O)C(=O)N[C@@H](Cc3cccnc3)C(=O)N(C)CC(N)=O)CCOCC2)NC1=O
